According to PubChem BioAssay AID248 (DTP/NCI, 2004):
Where “and” joins values, the source holds several entries; their conditions need not be identical. Identical values can stand only once. Inconclusive results and toxic doses are left out. Cut-off read from the data, not from the text of the source: active = T/C of 150% or more; inactive = T/C below 125%.

Tested on: L1210 leukemia ip in BDF1 mice, survival T/C
Test: NCI In Vivo Anticancer Drug Screen. Data for tumor model L1210 Leukemia (intraperitoneal) in B6D2F1 (BDF1) mice
Settings: endpoint: mean survival time, higher = longer survival
In short: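 Ratio derived from survival: compound-dosed mice over vehicle-dosed mice, all bearing a transplantable tumor.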

[1] = dose: 100.0 mg/kg/injection, schedule: Q04DX002 (ip), vehicle: saline with Tween-80
[2] = dose: 100.0 mg/kg/injection, schedule: Q04DX003 (ip), vehicle: saline with Tween-80
[3] = dose: 200.0 mg/kg/injection, schedule: Q04DX002 (ip), vehicle: saline with Tween-80
[4] = dose: 200.0 mg/kg/injection, schedule: Q04DX003 (ip), vehicle: saline with Tween-80
[5] = dose: 400.0 mg/kg/injection, schedule: Q04DX003 (ip), vehicle: saline with Tween-80
[6] = dose: 75.0 mg/kg/injection, schedule: Q01DX001 (ip), vehicle: saline
[7] = dose: 75.0 mg/kg/injection, schedule: Q04DX003 (ip), vehicle: saline
[8] = dose: 150.0 mg/kg/injection, schedule: Q01DX001 (ip), vehicle: saline
[9] = dose: 150.0 mg/kg/injection, schedule: Q04DX003 (ip), vehicle: saline
[10] = dose: 100.0 mg/kg/injection, schedule: Q04DX003 (ip), vehicle: Klucel (hydroxypropylcellulose) (HPC)
[11] = dose: 200.0 mg/kg/injection, schedule: Q04DX003 (ip), vehicle: Klucel (hydroxypropylcellulose) (HPC)
[12] = dose: 100.0 mg/kg/injection, schedule: Q01DX009 (ip), vehicle: saline with Tween-80
[13] = dose: 200.0 mg/kg/injection, schedule: Q01DX009 (ip), vehicle: saline with Tween-80
[14] = dose: 400.0 mg/kg/injection, schedule: Q01DX009 (ip), vehicle: saline with Tween-80
[15] = dose: 400.0 mg/kg/injection, schedule: Q04DX003 (ip), vehicle: Klucel (hydroxypropylcellulose) (HPC)
[16] = dose: 50.0 mg/kg/injection, schedule: Q01DX009 (ip), vehicle: saline with Tween-80
[17] = dose: 100.0 mg/kg/injection, schedule: Q01DX009 (ip), vehicle: Klucel (hydroxypropylcellulose) (HPC)
[18] = dose: 200.0 mg/kg/injection, schedule: Q01DX009 (ip), vehicle: Klucel (hydroxypropylcellulose) (HPC)
[19] = dose: 400.0 mg/kg/injection, schedule: Q01DX009 (ip), vehicle: Klucel (hydroxypropylcellulose) (HPC)
[20] = dose: 25.0 mg/kg/injection, schedule: Q01DX001 (ip), vehicle: Klucel (hydroxypropylcellulose) (HPC)
[21] = dose: 50.0 mg/kg/injection, schedule: Q01DX001 (ip), vehicle: Klucel (hydroxypropylcellulose) (HPC)
[22] = dose: 100.0 mg/kg/injection, schedule: Q01DX001 (ip), vehicle: Klucel (hydroxypropylcellulose) (HPC)

Measured: T/C

O=C1c2cc([N+](=O)[O-])ccc2-c2cccc(F)c21
inactive: dose: 100.0 mg/kg/injection, schedule: Q04DX003 (ip), vehicle: acetone 102 % of control | dose: 200.0 mg/kg/injection, schedule: Q04DX003 (ip), vehicle: acetone 94 % of control | dose: 400.0 mg/kg/injection, schedule: Q04DX003 (ip), vehicle: acetone 109 % of control

CSC1=Nc2c(C)nn(C)c2C(c2ccccc2)S1 (stereo not drawn)
inactive: [1] 100 % of control and 112 % of control | [2] 97 % of control and 101 % of control | [3] 104 % of control and 89 % of control | [4] 96 % of control and 100 % of control | dose: 400.0 mg/kg/injection, schedule: Q04DX002 (ip), vehicle: saline with Tween-80 94 % of control and 104 % of control | [5] 96 % of control and 100 % of control

NCCSC1(O)C(=O)c2ccccc2C1=O
inactive: dose: 37.5 mg/kg/injection, schedule: Q04DX003 (ip), vehicle: saline 97 % of control | [6] 104 % of control | [7] 116 % of control | [8] 110 % of control | [9] 111 % of control

CN=C(c1ccc(NC(=O)c2ccc(C(=O)Nc3ccc(C(=NC)N4CCCC4)cc3)cc2)cc1)N1CCCC1
inactive: dose: 0.5 mg/kg/injection, schedule: Q01DX Z (ip), vehicle: water 96 % of control | dose: 1.0 mg/kg/injection, schedule: Q01DX Z (ip), vehicle: water 96 % of control

O=S(=O)(OCC1CO1)c1ccc(Br)cc1 (stereo not drawn)
inactive: dose: 100.0 mg/kg/injection, schedule: Q01DX008 (ip), vehicle: Klucel (hydroxypropylcellulose) (HPC) 103 % of control | dose: 200.0 mg/kg/injection, schedule: Q01DX008 (ip), vehicle: Klucel (hydroxypropylcellulose) (HPC) 92 % of control | dose: 400.0 mg/kg/injection, schedule: Q01DX008 (ip), vehicle: Klucel (hydroxypropylcellulose) (HPC) 108 % of control

CCCCNC(c1ccccc1)C(Cl)c1ccccc1 (stereo not drawn)
inactive: [10] 97 % of control | [11] 97 % of control

Cc1ccc(C)c(CCCC(=O)O)c1
inactive: [12] 96 % of control | [10] 105 % of control | [13] 93 % of control | [11] 94 % of control | [14] 104 % of control | [15] 100 % of control

CNc1cn(C2OC(CO)C(O)C2O)c(=O)[nH]c1=O (stereo not drawn)
inactive: dose: 100.0 mg/kg/injection, schedule: Q01DX005 (ip), vehicle: saline 96 % of control | dose: 200.0 mg/kg/injection, schedule: Q01DX005 (ip), vehicle: saline 96 % of control

N#CC1c2ccccc2C=CN1C(=O)c1ccccc1 (stereo not drawn)
inactive: [16] 95 % of control | [17] 92 % of control | [10] 94 % of control | [2] 97 % of control | [18] 97 % of control | [13] 93 % of control | [11] 98 % of control | [4] 94 % of control | [19] 92 % of control | [14] 95 % of control | [15] 94 % of control | [5] 96 % of control

N#C/C(=C(/C#N)c1ccccc1)c1ccccc1
inactive: dose: 100.0 mg/kg/injection, schedule: Q01DX001 (ip), vehicle: saline with Tween-80 95 % of control | dose: 200.0 mg/kg/injection, schedule: Q01DX001 (ip), vehicle: saline with Tween-80 93 % of control | dose: 400.0 mg/kg/injection, schedule: Q01DX001 (ip), vehicle: saline with Tween-80 91 % of control

CC1(C)OC2C(C(=O)N(CCO)CCO)OC(n3cnc4c(N)ncnc43)C2O1 (stereo not drawn)
inactive: [6] 102 % of control | [7] 106 % of control | [8] 104 % of control | [9] 106 % of control | dose: 300.0 mg/kg/injection, schedule: Q01DX001 (ip), vehicle: saline 101 % of control | dose: 300.0 mg/kg/injection, schedule: Q04DX003 (ip), vehicle: saline 107 % of control

N#CSc1ccc(Nc2ccc(SC#N)cc2)cc1
inactive: dose: 12.5 mg/kg/injection, schedule: Q01DX009 (ip), vehicle: Klucel (hydroxypropylcellulose) (HPC) 95 % of control | dose: 25.0 mg/kg/injection, schedule: Q01DX009 (ip), vehicle: Klucel (hydroxypropylcellulose) (HPC) 98 % of control

C=C(Cl)COC(=O)C(C)O (stereo not drawn)
inactive: [20] 98 % of control | [21] 96 % of control | [22] 100 % of control

COc1ccc(CCN(C)C(C)C2C3CC4CC(C3)CC2C4)cc1OC (stereo not drawn)
inactive: dose: 100.0 mg/kg/injection, schedule: Q04DX003 (ip), vehicle: saline 101 % of control | dose: 200.0 mg/kg/injection, schedule: Q04DX003 (ip), vehicle: saline 94 % of control

COC(=O)C(c1ccccc1)C1(O)CCN(CC2COc3ccccc3O2)CC1 (stereo not drawn)
inactive: [20] 96 % of control | [21] 93 % of control | [22] 97 % of control and 102 % of control

O=C1c2ccccc2C(=O)c2cc(/C=N/Nc3ccc([N+](=O)[O-])cc3[N+](=O)[O-])ccc21
inactive: [22] 93 % of control | dose: 200.0 mg/kg/injection, schedule: Q01DX001 (ip), vehicle: Klucel (hydroxypropylcellulose) (HPC) 90 % of control | dose: 400.0 mg/kg/injection, schedule: Q01DX001 (ip), vehicle: Klucel (hydroxypropylcellulose) (HPC) 86 % of control

COc1ccc(/C=C/C(=O)c2cc(O)cc(OC)c2)cc1
inactive: [12] 102 % of control | [2] 100 % of control | [13] 94 % of control | [4] 108 % of control | [14] 94 % of control | [5] 95 % of control

O=S(=O)(O)c1ccc(N=Nc2ccc(O)cc2)cc1
inactive: dose: 25.0 mg/kg/injection, schedule: Q01DX009 (ip), vehicle: saline with Tween-80 104 % of control | [16] 102 % of control | [17] 88 % of control | [12] 101 % of control | [10] 92 % of control and 98 % of control | [2] 107 % of control | [18] 88 % of control | [11] 92 % of control and 102 % of control | [19] 90 % of control | [15] 97 % of control

C#CCOCC(O)CCl (stereo not drawn)
inactive: dose: 75.0 mg/kg/injection, schedule: Q01DX001 (ip), vehicle: acetone 101 % of control | dose: 150.0 mg/kg/injection, schedule: Q01DX001 (ip), vehicle: acetone 92 % of control | dose: 300.0 mg/kg/injection, schedule: Q01DX001 (ip), vehicle: acetone 89 % of control

CC(=O)Nc1ccc(NC(=O)Nc2cc(Cl)ccc2C)cc1
inactive: [17] 91 % of control | [18] 93 % of control | [19] 96 % of control

Cc1cc(O)c2cc3c(O)c(O)ccc3cc2c1
inactive: dose: 0.5 mg/kg/injection, schedule: Q01DX015 (ip), vehicle: saline 94 % of control | dose: 1.0 mg/kg/injection, schedule: Q01DX015 (ip), vehicle: saline 96 % of control | dose: 2.0 mg/kg/injection, schedule: Q01DX015 (ip), vehicle: saline 96 % of control | dose: 4.0 mg/kg/injection, schedule: Q01DX015 (ip), vehicle: saline 100 % of control and 109 % of control | dose: 5.0 mg/kg/injection, schedule: Q01DX001 (ip), vehicle: saline 112 % of control | dose: 6.2 mg/kg/injection, schedule: Q01DX001 (ip), vehicle: carboxymethylcellulose (CMC) 108 % of control | dose: 8.0 mg/kg/injection, schedule: Q01DX015 (ip), vehicle: saline 103 % of control | dose: 10.0 mg/kg/injection, schedule: Q01DX001 (ip), vehicle: saline 115 % of control | dose: 12.5 mg/kg/injection, schedule: Q01DX001 (ip), vehicle: carboxymethylcellulose (CMC) 104 % of control | dose: 25.0 mg/kg/injection, schedule: Q01DX001 (ip), vehicle: carboxymethylcellulose (CMC) 110 % of control

Cc1ccccc1N(C)C
inactive: dose: 50.0 mg/kg/injection, schedule: Q04DX002 (ip), vehicle: saline with Tween-80 106 % of control | [1] 98 % of control | [3] 92 % of control
